This assay has as its target Neuropilin-1 (Homo sapiens) (UniProt O14786). Briefly: blockers of CendR peptide binding to NRP-1 – biochemical, FP and AlphaScreen panel, dose response (AID 651650). The settings on record: NRP-1 b1b2 / RPARPAR peptide binding, FP or AlphaScreen.
The mark [1] stands for this setting: AlphaScreen, run 1, individual panel run IC50.
[2] abbreviates: FP, run 1, individual panel run IC50.
Setting [3] is: FP, run 2, individual panel run IC50.

The values below come from PubChem BioAssay AID651650 (Sanford-Burnham Center for Chemical Genomics, 2012).

Activity calls are given as the source filed them.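 Rule for the calls: active = mean IC50 below 20 µM in each of the two panels, so potent in both; inactive = the rest.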

Sequence of Neuropilin-1 (Homo sapiens) (O14786 whole entry, looked up): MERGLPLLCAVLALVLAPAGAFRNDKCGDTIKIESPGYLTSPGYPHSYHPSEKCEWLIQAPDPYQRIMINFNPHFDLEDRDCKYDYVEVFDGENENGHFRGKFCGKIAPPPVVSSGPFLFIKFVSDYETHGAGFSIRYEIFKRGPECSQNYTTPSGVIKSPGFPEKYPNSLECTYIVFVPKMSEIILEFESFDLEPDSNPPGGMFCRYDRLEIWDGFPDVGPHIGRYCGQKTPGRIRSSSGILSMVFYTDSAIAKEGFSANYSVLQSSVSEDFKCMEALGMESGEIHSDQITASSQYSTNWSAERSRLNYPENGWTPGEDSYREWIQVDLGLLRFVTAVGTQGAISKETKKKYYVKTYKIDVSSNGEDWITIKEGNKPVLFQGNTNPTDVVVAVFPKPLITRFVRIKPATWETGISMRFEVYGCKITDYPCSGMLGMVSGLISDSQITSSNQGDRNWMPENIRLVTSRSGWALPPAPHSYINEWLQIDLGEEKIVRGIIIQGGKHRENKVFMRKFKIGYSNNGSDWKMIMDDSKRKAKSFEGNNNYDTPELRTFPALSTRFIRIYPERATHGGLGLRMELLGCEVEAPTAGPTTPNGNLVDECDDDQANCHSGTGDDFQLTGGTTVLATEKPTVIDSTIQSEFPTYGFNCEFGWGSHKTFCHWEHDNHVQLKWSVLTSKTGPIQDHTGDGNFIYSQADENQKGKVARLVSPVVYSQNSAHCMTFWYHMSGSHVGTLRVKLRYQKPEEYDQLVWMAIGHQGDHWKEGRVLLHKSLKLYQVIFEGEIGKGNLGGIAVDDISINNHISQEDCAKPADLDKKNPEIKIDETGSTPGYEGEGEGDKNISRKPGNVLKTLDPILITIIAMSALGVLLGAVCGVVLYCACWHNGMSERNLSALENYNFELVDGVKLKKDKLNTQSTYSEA

As for `CCOC(=O)c1c(=O)n(O)c2ccc(OC)cc2[n+]1[O-]`, the IC50 is > 100 µM (inactive) (AlphaScreen, mean of runs); above 100 µM under setting [1]; > 95 µM (inactive) (FP, mean of runs); above 95 µM under setting [2]; above 95 µM under setting [3].
Regarding `CCCCn1nnnc1C(c1cc2ccccc2o1)N(C)Cc1ccc(Cl)c(Cl)c1` (stereo not given), the IC50 is 12.7 µM (AlphaScreen, mean of runs); 12.7 µM under setting [1]; > 95 µM (inactive) (FP, mean of runs); above 95 µM under setting [2]; above 95 µM under setting [3].
For the compound `O=C(CCc1ccc(Oc2cc([N+](=O)[O-])cc([N+](=O)[O-])c2)cc1)N1CCCCCC1`, the half-maximal inhibitory concentration (IC50) runs as follows: (AlphaScreen, mean of runs) 11.6 µM; under setting [1], 11.6 µM; (FP, mean of runs) > 95 µM (inactive); under setting [2], above 95 µM; under setting [3], above 95 µM.
On to `CC(/C=C/c1ccccc1)=N\NC(=O)CCc1ccccc1`, for which the IC50 is > 100 µM (inactive) (AlphaScreen, mean of runs); above 100 µM under setting [1]; > 95 µM (inactive) (FP, mean of runs); above 95 µM under setting [2]; above 95 µM under setting [3].
On to `C=CCn1c(SCC(=O)Nc2ncc(Cc3ccc(Br)cc3)s2)nnc1-c1ccncc1`, for which the IC50 (AlphaScreen, mean of runs) is > 100 µM (inactive); the IC50 under setting [1] was above 100 µM; the IC50 (FP, mean of runs) was > 95 µM (inactive); the IC50 under setting [2] was above 95 µM; the IC50 under setting [3] is above 95 µM.
For the compound `COc1ccc(C2CC(O)(c3ccccc3)Oc3cc(OC)ccc32)cc1` (stereo not given), the IC50 reads like this: (AlphaScreen, mean of runs) > 100 µM (inactive); under setting [1], above 100 µM; (FP, mean of runs) > 95 µM (inactive); under setting [2], above 95 µM; under setting [3], above 95 µM.
Regarding `CC(C)(C)OC(=O)N1CCC(NC(=O)c2nc[nH]c2C(=O)N2CCc3ccccc3C2)CC1`, the IC50 runs as follows: (AlphaScreen, mean of runs) > 100 µM (inactive); under setting [1], above 100 µM; (FP, mean of runs) > 95 µM (inactive); under setting [2], above 95 µM; under setting [3], above 95 µM.
On to `COC(=O)c1c(NC(=O)CN(c2ccccc2)S(C)(=O)=O)sc2c1CCCC2`, for which the IC50 is 15.5 µM (AlphaScreen, mean of runs); 15.5 µM under setting [1]; > 95 µM (inactive) (FP, mean of runs); above 95 µM under setting [2]; above 95 µM under setting [3].
As to `CC1CCC(NC(=O)CSc2nncn2C)CC1` (stereo not given), the IC50 was > 100 µM (inactive) (AlphaScreen, mean of runs); above 100 µM under setting [1]; > 95 µM (inactive) (FP, mean of runs); above 95 µM under setting [2]; above 95 µM under setting [3].
Consider `COC(=O)c1ccccc1NC(=O)CSc1nc(C)cc(C)n1`, for which the IC50 is > 100 µM (inactive) (AlphaScreen, mean of runs); above 100 µM under setting [1]; > 95 µM (inactive) (FP, mean of runs); above 95 µM under setting [2]; above 95 µM under setting [3].
In the case of `O=[N+]([O-])c1ccc(Cc2ccncc2)cc1`, the IC50 by setting is: (AlphaScreen, mean of runs) > 100 µM (inactive); under setting [1], above 100 µM; (FP, mean of runs) > 95 µM (inactive); under setting [2], above 95 µM; under setting [3], above 95 µM.
Consider `COc1ccc(/C=N/NC(=O)c2ccccc2Cl)cc1CSc1nc2ccccc2s1`, for which the IC50 (AlphaScreen, mean of runs) was > 100 µM (inactive); the IC50 under setting [1] is above 100 µM; the IC50 (FP, mean of runs) was > 95 µM (inactive); the IC50 under setting [2] is above 95 µM; the IC50 under setting [3] was above 95 µM.
With `C=CCC1(CC=C)CCCN1C(=O)c1cc(COc2cccc(OC)c2)on1`, the IC50 reads like this: (AlphaScreen, mean of runs) > 100 µM (inactive); under setting [1], above 100 µM; (FP, mean of runs) > 95 µM (inactive); under setting [2], above 95 µM; under setting [3], above 95 µM.
With `COC(=O)c1cccc(NC(=S)NCCC2=CCCCC2)c1`, the IC50 reads like this: (AlphaScreen, mean of runs) > 100 µM (inactive); under setting [1], above 100 µM; (FP, mean of runs) > 95 µM (inactive); under setting [2], above 95 µM; under setting [3], above 95 µM.
For `COc1ccc(Cn2c3ccc(OC)cc3c3nc4ccccc4nc32)cc1`, the IC50 result (AlphaScreen, mean of runs) was “inactive”. Also, the IC50 under setting [1] was found to be 38.9 µM; the IC50 (FP, mean of runs) is > 95 µM (inactive); the IC50 under setting [2] is above 95 µM; the IC50 under setting [3] was above 95 µM.
As for `COc1ccc([C@H]2/C=C\CN(C(=O)C3CC3)[C@@H](C)C(=O)N2Cc2ccc(F)cc2)cc1`, the IC50 (AlphaScreen, mean of runs) was > 100 µM (inactive); the IC50 under setting [1] is above 100 µM; the IC50 (FP, mean of runs) is > 95 µM (inactive); the IC50 under setting [2] was above 95 µM; the IC50 under setting [3] is above 95 µM.
Regarding `CCCCOC(=O)c1ccc(NS(=O)(=O)c2cc(-c3nnnn3CC)ccc2OC)cc1`, the IC50 (AlphaScreen, mean of runs) is > 100 µM (inactive); the IC50 under setting [1] is above 100 µM; the IC50 (FP, mean of runs) is > 95 µM (inactive); the IC50 under setting [2] is above 95 µM; the IC50 under setting [3] is above 95 µM.
As for `CN(c1ccccc1)S(=O)(=O)c1cccc(NC(=O)CSc2nncn2C)c1`, the IC50 is, setting by setting: (AlphaScreen, mean of runs) > 100 µM (inactive); under setting [1], above 100 µM; (FP, mean of runs) > 95 µM (inactive); under setting [2], above 95 µM; under setting [3], above 95 µM.
Consider `Cc1cc2c(=O)[nH]cnc2s1`, for which the IC50 was > 100 µM (inactive) (AlphaScreen, mean of runs); above 100 µM under setting [1]; > 95 µM (inactive) (FP, mean of runs); above 95 µM under setting [2]; above 95 µM under setting [3].
Regarding `Cc1ccc(C(=O)O)cc1NC(=O)Nc1cccc2ccccc12`, the IC50 was > 100 µM (inactive) (AlphaScreen, mean of runs); above 100 µM under setting [1]; > 95 µM (inactive) (FP, mean of runs); above 95 µM under setting [2]; above 95 µM under setting [3].
As for `CC#CCN(Cc1ccco1)C(=O)C1CCC(=O)N(Cc2ccccc2F)C1` (stereo not given), the IC50 reads like this: (AlphaScreen, mean of runs) > 100 µM (inactive); under setting [1], above 100 µM; (FP, mean of runs) > 95 µM (inactive); under setting [2], above 95 µM; under setting [3], above 95 µM.
Consider `Cc1nc(SCc2ccc(C(=O)O)cc2)nc2c1CCCC2`, for which the IC50 is > 100 µM (inactive) (AlphaScreen, mean of runs); above 100 µM under setting [1]; > 95 µM (inactive) (FP, mean of runs); above 95 µM under setting [2]; above 95 µM under setting [3].
As for `COc1cc(CN2C[C@@H](CO)O[C@@H](n3cnc4c(N5CCN(c6ccccc6)CC5)ncnc43)C2)cc(OC)c1OC`, the IC50 result (AlphaScreen, mean of runs) was “inactive”. The half-inhibitory concentration (IC50) was 96.3 µM under setting [1]; > 95 µM (inactive) (FP, mean of runs); above 95 µM under setting [2]; above 95 µM under setting [3].
As for `OCCNc1ncnc2ccc(Br)cc12`, for the setting “AlphaScreen, mean of runs”, the IC50 entry is “inactive”. For the same compound, the IC50 reads like this: under setting [1], 45.2 µM; (FP, mean of runs) > 95 µM (inactive); under setting [2], above 95 µM; under setting [3], above 95 µM.
For `CC(C)(C)n1nc(-c2ccc(F)cc2)c2c(N)ncnc21`, the IC50 (AlphaScreen, mean of runs) was > 100 µM (inactive); the IC50 under setting [1] was above 100 µM; the IC50 (FP, mean of runs) was > 95 µM (inactive); the half-inhibitory concentration (IC50) under setting [2] is above 95 µM; the IC50 under setting [3] was above 95 µM.
As for `CC(C)c1ccc(S(=O)(=O)N2CCN(C(=O)CN3C(=O)c4ccccc4C3=O)CC2)cc1`, the IC50 (AlphaScreen, mean of runs) was > 100 µM (inactive); the IC50 under setting [1] was above 100 µM; the IC50 (FP, mean of runs) is > 95 µM (inactive); the IC50 under setting [2] is above 95 µM; the concentration for half-maximal inhibition (IC50) under setting [3] was above 95 µM.
Take `COc1ccc(Cl)cc1NC(=O)C(C)N1CCc2ccccc21` (stereo not given): the IC50 result runs as follows: (AlphaScreen, mean of runs) “inactive”; (FP, mean of runs) “inactive”. The IC50 reads like this: under setting [1], 45.6 µM; under setting [2], 50 µM; under setting [3], 30.3 µM.
As to `CCOC(=O)N1CCN(C(=O)c2cc3n(n2)C(C(F)(F)F)CC(c2ccc4c(c2)OCO4)N3)CC1` (stereo not given), the IC50 is, setting by setting: (AlphaScreen, mean of runs) > 100 µM (inactive); under setting [1], above 100 µM; (FP, mean of runs) > 95 µM (inactive); under setting [2], above 95 µM; under setting [3], above 95 µM.
For `CCCc1c(O)c2ccccc2[nH]c1=O`, the IC50 (AlphaScreen, mean of runs) was > 100 µM (inactive); the IC50 under setting [1] is above 100 µM; the IC50 (FP, mean of runs) is > 95 µM (inactive); the IC50 under setting [2] was above 95 µM; the IC50 under setting [3] is above 95 µM.
With `Cc1ccccc1OCC1Cc2c(nc(N)c(C#N)c2N)O1` (stereo not given), the IC50 reads like this: (AlphaScreen, mean of runs) > 100 µM (inactive); under setting [1], above 100 µM; (FP, mean of runs) > 95 µM (inactive); under setting [2], above 95 µM; under setting [3], above 95 µM.
In the case of `COc1ccccc1N1CCN(C2CCCN(C(=O)Cn3cccn3)C2)CC1` (stereo not given), the IC50 is, setting by setting: (AlphaScreen, mean of runs) > 100 µM (inactive); under setting [1], above 100 µM; (FP, mean of runs) > 95 µM (inactive); under setting [2], above 95 µM; under setting [3], above 95 µM.
With `O=C1CCC[C@@H]2Cc3nc4cc5c(cc4cc3[C@@H]3CCN1[C@H]23)OCO5`, the IC50 is, setting by setting: (AlphaScreen, mean of runs) > 100 µM (inactive); under setting [1], above 100 µM; (FP, mean of runs) > 95 µM (inactive); under setting [2], above 95 µM; under setting [3], above 95 µM.
With `C[C@@H]1CC=C[C@H]2[C@H]1C(=O)N(Cc1ccccc1)[C@H]2c1ccc(/C=C/c2ccccc2)cc1F`, the IC50 is > 100 µM (inactive) (AlphaScreen, mean of runs); above 100 µM under setting [1]; > 95 µM (inactive) (FP, mean of runs); above 95 µM under setting [2]; above 95 µM under setting [3].
Take `CCOC(=O)c1ccc(NC(=O)CN2CCc3ccccc3C2)cc1`: the IC50 (AlphaScreen, mean of runs) is > 100 µM (inactive); the IC50 under setting [1] was above 100 µM; the IC50 (FP, mean of runs) was > 95 µM (inactive); the IC50 under setting [2] is above 95 µM; the IC50 under setting [3] was above 95 µM.

The IC50 is the concentration that inhibits the measured activity by half.
